pEC50: −log10 of the molar value. Like-named read-outs stand apart in the source and are kept apart here. Where no end group is shown, it is not given here.
How the values were obtained:
[1] = molecular target: T1, H-2K^b (Mus musculus, UniProt P01901); assay: MHC I stabilization assay with TAP-deficient RMA-S cells; assay type: cell-based; conditions: peptide concentration for 50% of maximal MHC I stabilization (half-maximal MFI), 100 to 5.6 × 10^−4 μg/mL, 1 h room temperature then 1 h 37°C, flow cytometry with antibody B8.24.3, standard deviation in brackets, N = 3, n.d.: not detectable, read-out: Experimental EC50
T1 construct: For accumulation of peptide-free MHC I proteins at the cell surface, the cells were cultured for 16 hours at 26°C; endogenous in cells; host or cells: RMA-S cells (TAP-deficient mouse T lymphoma)
T1 sequence (P01901 22-369): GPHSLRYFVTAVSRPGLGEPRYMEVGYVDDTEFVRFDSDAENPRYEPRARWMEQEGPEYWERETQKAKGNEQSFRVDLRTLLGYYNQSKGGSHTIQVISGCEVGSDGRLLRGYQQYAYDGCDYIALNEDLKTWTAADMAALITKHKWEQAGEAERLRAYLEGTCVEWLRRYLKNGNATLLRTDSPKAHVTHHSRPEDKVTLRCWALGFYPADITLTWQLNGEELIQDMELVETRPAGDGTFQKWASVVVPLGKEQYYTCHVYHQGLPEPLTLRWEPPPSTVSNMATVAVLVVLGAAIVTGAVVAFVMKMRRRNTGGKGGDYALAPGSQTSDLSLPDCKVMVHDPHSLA
T1 sequence (P01887 21-119 partner): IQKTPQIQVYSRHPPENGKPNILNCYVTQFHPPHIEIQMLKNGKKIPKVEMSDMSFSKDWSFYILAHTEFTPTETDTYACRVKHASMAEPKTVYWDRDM
Procedure: The stabilization assay was performed as described by Brock et al. using TAP-deficient RMA-S cells (mutagenized Rauscher virus-induced T lymphoma cells of mouse origin). The cells were cultured in DMEM (Gibco-BRL, Karlsruhe, Germany) with 10% FCS (Sigma-Aldrich, Steinheim, Germany) at 37°C with 8% CO2. For accumulation of peptide-free MHC I proteins at the cell surface, the cells were cultured for 16 hours at 26°C. […] The stabilized MHC I proteins were visualized and quantified by flow cytometry using the H-2K^b specific monoclonal antibody B8.24.3 [23] purified in the laboratory from hybridoma culture supernatant by protein G affinity chromatography (Pierce, Darmstadt, Germany) and an R-Phycoerythrin-conjugated anti-mouse antibody (Dianova GmbH, Hamburg, Germany) as secondary reagent. The stabilizing effect of the peptides was determined as mean fluorescence intensity (MFI). The EC50 value is the peptide concentration that is required for half-maximal stabilization of the MHC I molecules at the cell surfaces (half-maximal MFI). All peptides were custom-synthesized by EMC microcollections GmbH (Tübingen, Germany).

[2] = molecular target: T1, H-2K^b; set-up: method as in PMID 1606619; conditions: known nonstabilizing octapeptide; cited from earlier work

| Sequence | pEC50 ([1]; SD) | further results |
| --- | --- | --- |
| FHHAHRTV [sequence 9] |  | pEC50 [1]: 5.05 |
| FHWDYRGL [Peptide 3] | 4.60 |  |
| FRYIYHTL [Seq. 2] |  | pEC50 [1]: 4.70 |
| FRYPYKTL [Peptide 1] | 4.62 |  |
| LSPFPFDL |  | H-2K^b stabilizing effect in words [2]: nonstabilizing |
| WDFKFDSV [Peptide 7] | 5.05 |  |
| WKFIFDPV [Peptide 8] | 6.40 |  |
| WRFIYFNL [Peptide 6] | 5.44 |  |
| WRFKYDNL [Peptide 4] | 5.15 |  |
| WRFVYWRL [Peptide 5] | 5.10 |  |

From publication PMC2876253, “MHC I Stabilizing Potential of Computer-Designed Octapeptides” (Journal of Biomedicine and Biotechnology, 2010)
